For ten compounds, GI50 and TGI results are on record in PubChem BioAssay (NCI).

Test systems include T-47D breast; BT-549 breast; HCT-116 colon; SNB-19 CNS; RXF 393 renal; SF-268 CNS; HCT-15 colon; UACC-257 melanoma; SF-295 CNS; EKVX NSCLC.
Experiment in all cases: NCI anticancer screen, dose series, 48 h

Where “and” joins values, the source holds several entries; their conditions need not be identical. Identical values can stand only once.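 In this assay, cells in 96-well plates receive the compound at five concentrations for 48 hours. Endpoints are linearly interpolated between the surrounding concentrations. At the GI50, growth is halved. TGI denotes the concentration required for complete inhibition of growth.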

In the case of `O=C1NC(=O)C(c2cnc3ccccn23)=C1c1cn2c3c(cc(F)cc13)CN(C(=O)N1CCCCC1)CC2`, the GI50 in the assay with T-47D breast is 9.79 µM; in the assay on BT-549 breast, 14.7 µM; in the assay with HCT-116 colon, 3.35 µM; with SNB-19 CNS it was 22.8 µM; in the assay on RXF 393 renal, 0.0224 µM; with SF-268 CNS it was 13.4 µM. Besides, the GI50 with HCT-15 colon was 13.3 µM; with UACC-257 melanoma, 18.1 µM; in the assay on SF-295 CNS, 0.142 µM. Also, the TGI in the assay on T-47D breast was above 69.2 µM; in the assay on BT-549 breast, 45 µM; in the assay with HCT-116 colon, above 89.8 µM; in the assay on SNB-19 CNS, above 87.5 µM; in the assay with RXF 393 renal, 14.7 µM; in the assay with SF-268 CNS, 39.4 µM. Further, the TGI stood at 66.9 µM in the assay on HCT-15 colon, 40.4 µM in the assay with UACC-257 melanoma and 33.9 µM in the assay with SF-295 CNS.

With `N#Cc1c(NN)n(C2OC(CO)C(O)C2O)c2ncnc(N)c12` (configuration not stated), the GI50 in the assay with T-47D breast is 0.0191 µM; with BT-549 breast it was 0.271 µM; in the assay with SNB-19 CNS it was 0.395 µM; in the assay on RXF 393 renal, 0.0398 µM; in the assay on SF-268 CNS, 0.171 µM; in the assay with HCT-15 colon, 0.0198 µM. Also, the results for the GI50 with EKVX NSCLC, with UACC-257 melanoma and with SF-295 CNS were 0.209 µM, 0.267 µM and 0.344 µM, respectively. Besides, the TGI with T-47D breast is 0.118 µM; in the assay with BT-549 breast it was 2.8 µM; in the assay with SNB-19 CNS it was above 29.5 µM; with RXF 393 renal, 0.415 µM; in the assay with SF-268 CNS it was above 45.3 µM; in the assay on UACC-257 melanoma, 1.66 µM. Further, the TGI in the assay with SF-295 CNS turned out to be 47.8 µM.

In the case of `CNC(=O)N(C)N=NCCCl`, the TGI with T-47D breast, in the assay on HCT-116 colon, in the assay with SNB-19 CNS, with RXF 393 renal, in the assay on SF-268 CNS and with HCT-15 colon was above 100 µM throughout. The TGI in the assay with EKVX NSCLC, in the assay with UACC-257 melanoma and in the assay on SF-295 CNS was above 100 µM in each case.

Regarding `COc1ccc(C(C)=O)cc1N1C(=O)C2C(C1=O)C1(c3ccccc3)C(=O)C2(c2ccccc2)C(c2ccc(C)cc2)=C1c1ccc(C)cc1` (configuration not stated), the GI50 in the assay with T-47D breast, in the assay on BT-549 breast, in the assay on HCT-116 colon, in the assay with SNB-19 CNS, in the assay on RXF 393 renal and with SF-268 CNS was above 100 µM in each case. For the same compound, the GI50 with HCT-15 colon, in the assay with UACC-257 melanoma and in the assay on SF-295 CNS was above 100 µM throughout. Further, the TGI in the assay on T-47D breast, in the assay on BT-549 breast, in the assay on HCT-116 colon, with SNB-19 CNS, in the assay with RXF 393 renal and in the assay with SF-268 CNS was above 100 µM each time. Moreover, the TGI in the assay on HCT-15 colon, with UACC-257 melanoma and in the assay with SF-295 CNS was above 100 µM in each case.

For `COc1ccc2c(c1)CCCC(Br)C2=O` (configuration not stated), the TGI was above 100 µM in the assay on T-47D breast; 7.31 µM in the assay on BT-549 breast; 22.3 µM with SNB-19 CNS; 17.7 µM in the assay with RXF 393 renal; 12.5 µM in the assay on SF-268 CNS; 12.7 µM in the assay on HCT-15 colon. In addition, the values for the TGI in the assay on EKVX NSCLC, with UACC-257 melanoma and in the assay on SF-295 CNS were 37.2 µM, 32.1 µM and 17.2 µM, respectively.

In the case of `Cc1nc2c(-c3cnc(N)nc3)nc(N3CCOCC3)nc2n1C(C)C`, the TGI is 0.251 µM and 0.102 µM with T-47D breast; 2.22 µM with BT-549 breast; above 100 µM in the assay on HCT-116 colon; above 100 µM in the assay on SNB-19 CNS; 0.611 µM and 0.315 µM with RXF 393 renal; above 100 µM in the assay on SF-268 CNS. Besides, the TGI with HCT-15 colon is above 100 µM; with EKVX NSCLC, 1.81 µM; with SF-295 CNS it was 0.888 µM and 0.406 µM. Besides, the GI50 in the assay on HCT-116 colon is 0.254 µM and 0.289 µM.

As to `COc1ccc(/C=C(/C(=O)N2CCN(c3ccccc3)CC2)c2cc(OC)c(OC)c(OC)c2)cc1O`, the GI50 was 51.3 µM in the assay on T-47D breast; 0.391 µM in the assay on BT-549 breast; 0.37 µM in the assay on HCT-116 colon; 0.481 µM in the assay on SNB-19 CNS; 0.543 µM in the assay on SF-268 CNS; 0.341 µM with HCT-15 colon. The figures for the GI50 in the assay with EKVX NSCLC, in the assay on UACC-257 melanoma and in the assay on SF-295 CNS were 0.631 µM, 30.6 µM and 0.808 µM, respectively. Also, the TGI in the assay with T-47D breast was above 100 µM; in the assay with BT-549 breast it was 98.5 µM; with HCT-116 colon, above 100 µM; with SNB-19 CNS, above 100 µM; in the assay with SF-268 CNS, above 100 µM; in the assay on HCT-15 colon, above 100 µM. In addition, the TGI in the assay on EKVX NSCLC, in the assay on UACC-257 melanoma and in the assay on SF-295 CNS was above 100 µM each time.

Take `NC(=Nc1c([N+](=O)[O-])cnc2ccccc12)N1CCOCC1`: the TGI with T-47D breast, in the assay on BT-549 breast, in the assay with HCT-116 colon, with SNB-19 CNS, in the assay with SF-268 CNS and in the assay on HCT-15 colon was above 100 µM throughout. Also, the TGI in the assay on EKVX NSCLC and in the assay on SF-295 CNS was above 100 µM each time.

Turning to `CC(C)c1ccc2c(c1)CC[C@@H]1[C@@](C)(C(=O)O)CCC[C@]21C`, the GI50 is 2.39 µM in the assay on T-47D breast; 1.47 µM in the assay on BT-549 breast; 6.9 µM in the assay with HCT-116 colon; 6.21 µM in the assay on SNB-19 CNS; 0.0244 µM with RXF 393 renal; 6.38 µM in the assay on HCT-15 colon. The GI50 in the assay with EKVX NSCLC was 1.82 µM; in the assay on UACC-257 melanoma, 0.33 µM; in the assay with SF-295 CNS, 3.74 µM. The TGI with T-47D breast was determined as 7.58 µM; in the assay with BT-549 breast it was 4.59 µM; in the assay on HCT-116 colon, 19.8 µM; in the assay with SNB-19 CNS it was 18.6 µM; in the assay with RXF 393 renal it was 0.727 µM; in the assay on HCT-15 colon, 19.6 µM. Also, the TGI in the assay on EKVX NSCLC was 6.94 µM; with UACC-257 melanoma, 3.86 µM; with SF-295 CNS it was 17.1 µM.

For the compound `Cc1ccc(C)c(C2=C(c3cn(C)c4ccccc34)C(=O)NC2=O)c1`, the GI50 was 14 µM with T-47D breast; above 25 µM with BT-549 breast; 7.58 µM with HCT-116 colon; above 25 µM in the assay with SNB-19 CNS; 5.93 µM with RXF 393 renal; above 25 µM in the assay on SF-268 CNS. Also, the GI50 in the assay on HCT-15 colon was 9.33 µM; in the assay with UACC-257 melanoma, above 25 µM; in the assay on SF-295 CNS it was 4.4 µM. Also, the TGI in the assay with T-47D breast, with BT-549 breast, in the assay with HCT-116 colon, with SNB-19 CNS, in the assay on RXF 393 renal and in the assay with SF-268 CNS was above 25 µM throughout. Also, the values for the TGI in the assay with HCT-15 colon, in the assay with UACC-257 melanoma and with SF-295 CNS were above 25 µM, above 25 µM and above 19.4 µM, respectively.
